Results taken from patent US6489475B2, “Method of producing heterocyclic derivatives” (Sankyo Company, Limited, priority 1994, dated 2002).
Marks after values point to notes of the source that are not given here.

Legend:
ACAT = ACAT inhibitory activity (small intestine mucosa microsomes, [1-14C]-oleoyl CoA, cholesteryl oleate production); assay type: biochemical, rabbit; settings: inhibition of cholesteryl oleate production vs control
Description: A high cholesterol feed [a feed added with cholesterol (1%), Clea Japan, Inc.] was fed to male Japanese white rabbits weighing 2-2.5 kg at 100 g per day and the rabbits were bred for 4 weeks. The rabbits were killed by bleeding under anesthesia and small intestine was removed. The mucous membrane of small intestine was peeled, collected and homogenated. The homogenate was centrifuged at 4° C. and 10,000 rpm for 15 min. The obtained supernatant was further centrifuged at 4° C. and 41,000 rpm for 30 minutes to give microsomal fractions. Using this microsomal suspension as an enzyme sample, dimethyl sulfoxide (DMSO, 5 μl) or a test compound dissolved in DMSO (test compound solution, 5 μl), and a reaction substrate [1-^14C]-oleoyl CoA were added to a reaction buffer. After incubation at 37° C. for 5 minutes, a chloroform-methanol mixture was added to stop the reaction. Water was added thereto and mixed, and chloroform layer was separated. The solvent was evaporated to dryness, and the residue was dissolved in hexane. The mixture was subjected to thin layer chromatography using a silica gel plate. The spots of cholesteryl oleate on the silica gel plate were scraped, and quantitatively assayed on a liquid scintillation counter. The ACAT inhibitory activity of the test compound was expressed as a proportion (%) of inhibition of cholesteryl oleate, namely, the proportion of inhibition of cholesteryl oleate production as compared to control.

Male Wister rats = assay: Serum total cholesterol reducing effect in rats on high cholesterol feed; assay type: in vivo; settings: oral, once a day for 3 days, rat
Description: Serum Total Cholesterol Reducing Effect
Male Wister rats weighing 180-200 g were bred under free access to a high cholesterol feed [added with cholesterol (1%), cholic acid (0.5%) and coconut oil (10%), Clea Japan, Inc.] for 3 days, during which period a test compound (10-100 mg/kg) suspended in 5% gum arabic solution was forcibly administered once a day orally for 3 days. Only 5% gum arabic solution was administered to control animals. After final administration, the test animals were fasted for 5 hours and the blood was taken. The serum total cholesterol level was determined using a commercially available assay kit (cholesterol-E-Test Wako, Wako Pure Chemical Industries, Ltd.). The activity of the test compound was expressed as a proportion (%) of reduction of serum total cholesterol level, namely, the proportion of reduction of serum total cholesterol as compared to control.

LDL = LDL peroxidation inhibitory effect (copper sulfate, malondialdehyde by thiobarbituric acid method); assay type: biochemical, rabbit; settings: concentration 10^-5M; 37°C, 24 hours; malondialdehyde production inhibitory ratio
Description: LDL Peroxidation Inhibitory Effect
Male Japanese white rabbits weighing 2-2.5 kg were bred on 100 g per day of a high cholesterol feed [added with cholesterol (1%), Clea Japan, Inc.] for 4 weeks. The blood was taken from carotid and plasma was obtained. Then, LDL was fractionated from the plasma by ultracentrifugation, dialyzed for one day and preserved at 4° C. LDL (400 μg) and aqueous copper sulfate solution (final concentration 5 μM) were added to bufferized Ham F-10 medium (2 ml, GIBCO, USA). DMSO or a solution (20 μl) of test compound dissolved in DMSO was added and the mixture was incubated at 37° C. for 24 hours. After the completion of the incubation, LDL peroxide in medium was allowed to develop color by thiobarbituric acid method and assayed as malondialdehyde. The activity of the test compound was expressed as malondialdehyde production inhibitory ratio (%), namely, the proportion of inhibition of production of malondialdehyde as compared to control.

plasma = assay: Plasma lipoperoxidation inhibitory effect (copper sulfate, malondialdehyde by thiobarbituric acid method); assay type: biochemical, rabbit; settings: concentration 10^-5M; 37°C, 3 hours; malondialdehyde production inhibitory ratio
Description: Plasma Lipoperoxidation Inhibitory Effect
The blood was taken from male Japanese white rabbits weighing 2-2.5 kg under anesthesia and heparinized plasma was separated by a conventional method. To the plasma (2.0 ml) was added DMSO or a solution (20 μl, final concentration 10^−5 M) of test compound dissolved in DMSO, and aqueous copper sulfate solution (final concentration 5 mM) was added immediately thereafter. The mixture was incubated at 37° C. for 3 hours. After the completion of the incubation, 20% trichloroacetic acid was added to stop the reaction. Then, the mixture was centrifuged at 4° C., 4,500 rpm for 15 minutes. The lipoperoxide in the supernatant thus obtained was assayed as malondialdehyde upon color development by thiobarbituric acid method. The activity of the test compound was expressed as malondialdehyde production inhibitory ratio (%), namely, the proportion of inhibition of production of malondialdehyde as compared to control.

| Structure (SMILES) | Result of Exp. Ex. 1: ACAT inhibition (ACAT; concentration 10^-5M) | Result of Exp. Ex. 2: reduction of serum total cholesterol (Male Wister rats; dose 10 mg/kg/day) | Result of Exp. Ex. 3: LDL peroxidation inhibition (LDL) | Result of Exp. Ex. 4: plasma lipoperoxidation inhibition (plasma) | Result of Exp. Ex. 2: reduction of serum total cholesterol (Male Wister rats; dose 30 mg/kg/day) | Result of Exp. Ex. 1: ACAT inhibition (ACAT; concentration 10^-4M) | Result of Exp. Ex. 2: reduction of serum total cholesterol (Male Wister rats; dose 100 mg/kg/day) |
| --- | --- | --- | --- | --- | --- | --- | --- |
| CCCCCCN1CCc2c(C)cc(C)c(NC(=O)C(C)(C)CCCCCC)c21 [Example 15] | 93.1 ** % | 35.0 * % | 12.3% | 90.1% | – | – | – |
| CCCCCCN1CCc2c(C)cc(C)c(NC(=O)C(C)(C)COCC)c21 [Example 34] | 91.0 ** % | – | 82.9% | 89.8% | 50.2 ** % | – | – |
| COCCN1CCc2c(C)cc(C)c(NC(=O)C(C)(C)C)c21 [Example 23] | 88.8 ** % | – | 54.8% | 90.5% | 23.6 ** % | – | – |
| CCCCCCN1CCc2c(C)cc(C)c(NC(=O)C(C)(C)CCC(=O)O)c21 [Example 20] | – | 7.8 * % | 67.8% | 91.1% | – | 22.7 * % | – |
| CCCCCCN1CCc2c(C)cc(C)c(NC(=O)C(C)C)c21 [Example 17] | 96.7 ** % | 27.0 * % | 89.6% | 91.1% | – | – | – |
| CCCCCCN1CCc2c(OC)cc(OC)c(NC(=O)C(C)(C)C)c21 [Example 7] | 96.2 ** % | – | 86.6% | 86.4% | 19.2 ** % | – | – |
| Cc1cc(C)c(NC(=O)C(C)(C)C)c2c1CCN2CC(C)C [Example 32] | 93.9 ** % | – | 85.3% | 89.1% | 57.4 ** % | – | – |
| CC(=O)OCCN1CCc2c(C)cc(C)c(NC(=O)C(C)(C)C)c21 [Example 22] | 78.5 ** % | – | 40.6% | 92.8% | – | – | 38.6 *** % |
| CCCCCCN1CCc2c(C)cc(C)c(NC(=O)C(C)(C)CO)c21 [Example 28] | 79.4 ** % | – | 92.2% | 91.1% | – | – | 20.8 *** % |
| CCCCCCN1CCc2c1cc(C)c(NC(=O)C(C)(C)C)c2C [Example 2, N-(1-hexyl-4,6-dimethylindolin-5-yl)-2,2-dimethylpropanamide] | 59.9 ** % | – | 99.5% | 95.8% | – | – | – |
| CCCCC(C)(C)C(=O)Nc1c(C)cc(C)c2c1N(CC)CC2 [Example 6] | 99.8 ** % | – | 24.8% | 37.4% | 53.3 ** % | – | – |
| CCCCCCN1CCc2c(C)cc(C)c(NC(=O)NCCCC)c21 [Example 4, 1-butyl-3-(1-hexyl-4,6-dimethylindolin-7-yl)urea] | 94.9 ** % | – | 59.5% | 92.0% | 21.4 ** % | – | – |
| CCCCN1CCc2c(C)cc(C)c(NC(=O)C(C)(C)CCCC)c21 [Example 9] | 81.3 ** % | – | 93.7% | 81.6% | 51.3 ** % | – | – |
| CCCCCCC(C)(C)C(=O)Nc1c(C)cc(C)c2c1N(CC)CC2 [Example 13] | 96.0 ** % | – | 82.4% | 87.1% | 28.4 ** % | – | – |
| CCCCCCN1CCc2c(C)cc(C)c(NC(=O)CCCC)c21 [Example 21] | 94.4 ** % | 28.3 * % | 92.1% | 91.4% | – | – | – |
| CCCCN1CCc2c(C)cc(C)c(NC(=O)C(C)(C)C)c21 [Example 8] | 99.7 ** % | – | 91.9% | 85.1% | 48.0 ** % | – | – |
| CCOCCN1CCc2c(C)cc(C)c(NC(=O)C(C)(C)C)c21 [Example 24] | 97.1 ** % | – | 42.2% | 90.5% | 28.3 ** % | – | – |
| Cc1cc(C)c(NC(=O)C(C)(C)C)c2c1CCN2CCCCCC(=O)O [Example 26] | 26.5 ** % | – | 43.3% | 90.1% | 37.4 ** % | – | – |
| CCCCCCN1CCc2c(C)cc(C)c(NC(=O)CC(C)(C)CC(=O)O)c21 [Example 18] | – | – | 34.0% | 87.1% | 22.3 ** % | 69.6 * % | – |
| Cc1cc(C)c(NC(=O)N(Cc2ccc3c(c2)Cc2ccccc2-3)C2CCCCCC2)c(C)c1 [YM-750, 1-cycloheptyl-1-[(2-fluorenyl)methyl]-3-(2,4,6-trimethylphenyl)urea, reference compound] | 92.3 ** % | – | 0% | – | 43.8 ** % | – | – |
| CCCCCCCCN1CCc2c(C)cc(C)c(NC(=O)C(C)(C)C)c21 [Example 11] | 99.2 ** % | 59.5 * % | 91.6% | 78.8% | – | – | – |
| Cc1cc(C)c(NC(=O)C(C)(C)C)c2c1CCN2CCC(C)C [Example 31] | 93.8 ** % | – | 90.3% | 90.8% | 49.0 ** % | – | – |
| CCCCCCN1CCc2c1cc(C)c(NC(=O)NCCCC)c2C [Example 1, 1-butyl-3-(1-hexyl-4,6-dimethylindolin-5-yl)urea] | 76.6 ** % | – | 99.2% | 94.3% | – | – | 12.9 *** % |
| CCCCCCN1CCc2c(C)cc(C)c(NC(=O)C(C)(C)COC(C)=O)c21 [Example 29] | 86.6 ** % | – | 91.9% | 91.1% | 6.9 ** % | – | – |
| CCCCCCN1CCc2c(C)cc(C)c(NC(=O)C(C)(C)CCCC)c21 [Example 14] | 96.6 ** % | – | 88.3% | 93.1% | 53.9 ** % | – | – |
